We go through 15 compounds from ChEMBL document CHEMBL1287721, “Synthesis of potent, substituted carbazoles as selective androgen receptor modulators (SARMs)” (Bioorg Med Chem Lett, 2010).

The source made the active and inactive calls. The calls are words filed in the database; no cut-off is given here.

Assay [1] addresses T1, Androgen receptor (Homo sapiens, UniProt P10275).
T1 sequence (P10275 whole entry): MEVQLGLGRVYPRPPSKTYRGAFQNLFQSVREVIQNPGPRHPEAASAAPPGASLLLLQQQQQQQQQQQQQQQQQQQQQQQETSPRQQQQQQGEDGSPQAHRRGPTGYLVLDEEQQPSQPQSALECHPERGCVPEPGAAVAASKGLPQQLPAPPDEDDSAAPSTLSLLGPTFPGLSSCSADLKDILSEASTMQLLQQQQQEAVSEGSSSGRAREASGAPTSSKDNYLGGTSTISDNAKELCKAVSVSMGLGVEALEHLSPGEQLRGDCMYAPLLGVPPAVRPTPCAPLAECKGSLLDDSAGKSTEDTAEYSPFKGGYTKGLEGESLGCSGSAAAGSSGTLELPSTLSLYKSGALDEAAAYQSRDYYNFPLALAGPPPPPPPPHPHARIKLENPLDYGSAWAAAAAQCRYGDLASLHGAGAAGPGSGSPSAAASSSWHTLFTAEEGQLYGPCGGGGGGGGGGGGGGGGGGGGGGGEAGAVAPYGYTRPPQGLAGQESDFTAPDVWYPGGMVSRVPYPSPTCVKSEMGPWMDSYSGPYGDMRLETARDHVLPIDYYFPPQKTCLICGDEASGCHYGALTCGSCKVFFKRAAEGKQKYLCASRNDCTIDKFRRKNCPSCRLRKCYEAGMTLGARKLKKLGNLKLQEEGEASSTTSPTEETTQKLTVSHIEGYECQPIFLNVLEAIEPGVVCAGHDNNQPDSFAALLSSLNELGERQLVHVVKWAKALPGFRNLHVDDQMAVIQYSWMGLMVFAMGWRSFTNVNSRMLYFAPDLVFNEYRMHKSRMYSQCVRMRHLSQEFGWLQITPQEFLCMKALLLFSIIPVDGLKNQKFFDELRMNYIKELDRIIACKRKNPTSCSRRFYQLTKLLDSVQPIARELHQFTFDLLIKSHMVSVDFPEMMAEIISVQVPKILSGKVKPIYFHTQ
As to the kind of experiment: Binding affinity to androgen receptor by fluorescence binding assay.

The test system of assay [2] is Rattus norvegicus. The experiment in a line: Positive-anabolic effect in Sprague-Dawley rat assessed as increase in leavator ani muscle weight at 30 mg/kg, po administered once daily for 4 days and measured 24 hrs after the last dose by Herschberger assay. The format is functional, organism-based. Further details: dose 30 mg/kg. The note with it: Muscle tissue.

Usually IC50 stands for the concentration that inhibits the measured activity by half. In assay [1], `N#Cc1ccc2[nH]c3c(c2c1)CCCC3(O)C(F)(F)F` (stereo unspecified) had an IC50 of 480 nM. Regarding `OC1(C(F)(F)F)CCCc2c1[nH]c1c(Cl)ccc(Cl)c21` (stereo unspecified), the IC50 in assay [1] is 85 nM.

Turning to `Oc1c(Cc2ccccc2)ccc2c1[nH]c1cc(Cl)c(Cl)cc12`, the IC50 in assay [1] is greater than 1000 nM. For `N#Cc1ccc2[nH]c3c(c2c1)CCCC3(O)C(F)(F)C(F)(F)F` (stereo unspecified), the 50% inhibitory concentration (IC50) in assay [1] was greater than 10000 nM.

The compound `CC1(O)CCCc2c1[nH]c1cc(Cl)c(Cl)cc21` (stereo unspecified) showed an IC50 in assay [1] greater than 10000 nM. On the same count and under the same terms, the same measure for `Oc1c(Cc2ccccc2)ccc2c1[nH]c1ccc(Cl)c(Cl)c12`: greater than 1000 nM; for `CC1(O)CCCc2c1[nH]c1ccc(C#N)cc21` (stereo unspecified): 9200 nM. As for `OC1(C(F)(F)F)CCCc2c1[nH]c1ccc(Cl)c(Cl)c21` (stereo unspecified), the IC50 in assay [1] turned out to be 95 nM. `OC1(C(F)(F)F)CCCc2c1[nH]c1c(Cl)cc(F)cc21` (stereo unspecified): the IC50 in assay [1] is 90 nM.

`OC1(C(F)(F)F)c2[nH]c3c(Cl)cc(Cl)cc3c2CCC1(F)F` (stereo unspecified) had an IC50 in assay [1] of 100 nM. In assay [1], `OC1(C(F)(F)F)CCc2c1[nH]c1c(Cl)cc(Cl)cc21` (stereo unspecified) returned an IC50 of 13 nM. As for `OC1(C(F)(F)C(F)(F)F)CCCc2c1[nH]c1cc(Cl)c(Cl)cc21` (stereo unspecified), the IC50 in assay [1] came out at 34 nM.

Take `OC1(C(F)(F)F)CCCCc2c1[nH]c1c(Cl)cc(Cl)cc21` (stereo unspecified): the IC50 in assay [1] is 600 nM. In assay [1], `OC1(C(F)(F)F)CCCc2c1[nH]c1c(Cl)cc(Cl)cc21` (stereo unspecified) had an IC50 of 34 nM. Turning to `OC1(C(F)(F)F)CCCc2c1[nH]c1cc(Cl)c(Cl)cc21` (stereo unspecified), the IC50 in assay [1] came to 27 nM. Also, the outcome in assay [2] was Active.
